This is an account of results in ChEMBL document CHEMBL6074628, “Rational design, synthesis and pharmacological characterization of novel aminopeptidase A inhibitors” (Bioorg Med Chem Lett, 2024).

≈ marks a conversion by molar mass, not a printed value.

The nature of data set [1]: Inhibition of rabbit kidney aminopeptidase A using GluNA as substrate incubated for 1 hrs by absorbance based assay.
A further data set has as its target T1, Glutamyl aminopeptidase (Mus musculus, UniProt P16406).
T1 sequence (P16406 whole entry): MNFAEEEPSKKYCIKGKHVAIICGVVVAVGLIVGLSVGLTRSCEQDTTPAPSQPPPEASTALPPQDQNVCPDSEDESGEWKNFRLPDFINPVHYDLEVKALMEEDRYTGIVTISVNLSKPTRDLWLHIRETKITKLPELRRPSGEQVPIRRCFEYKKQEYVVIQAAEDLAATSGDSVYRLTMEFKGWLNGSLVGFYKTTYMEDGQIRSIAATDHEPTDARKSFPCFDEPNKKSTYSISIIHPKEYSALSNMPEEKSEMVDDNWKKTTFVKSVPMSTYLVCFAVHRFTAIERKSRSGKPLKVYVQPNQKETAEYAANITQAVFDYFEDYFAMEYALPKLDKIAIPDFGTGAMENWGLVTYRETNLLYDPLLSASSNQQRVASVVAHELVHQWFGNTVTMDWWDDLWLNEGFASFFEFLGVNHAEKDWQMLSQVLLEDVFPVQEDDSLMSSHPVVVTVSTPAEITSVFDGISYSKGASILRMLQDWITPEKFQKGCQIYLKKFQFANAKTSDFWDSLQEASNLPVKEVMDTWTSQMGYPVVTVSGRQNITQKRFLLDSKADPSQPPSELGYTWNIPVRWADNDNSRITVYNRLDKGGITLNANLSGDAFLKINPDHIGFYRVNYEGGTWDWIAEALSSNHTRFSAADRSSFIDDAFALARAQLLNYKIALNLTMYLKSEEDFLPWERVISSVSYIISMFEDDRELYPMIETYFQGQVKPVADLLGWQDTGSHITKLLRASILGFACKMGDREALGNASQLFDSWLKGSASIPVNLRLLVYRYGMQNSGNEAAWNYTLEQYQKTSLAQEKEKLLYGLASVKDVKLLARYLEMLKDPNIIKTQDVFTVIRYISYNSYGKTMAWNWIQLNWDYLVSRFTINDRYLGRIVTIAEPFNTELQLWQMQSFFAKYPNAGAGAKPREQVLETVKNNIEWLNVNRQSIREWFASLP
As to the kind of experiment: Inhibition of recombinant mouse aminopeptidase A activity.

For a further data set, the target named is Aminopeptidase N (Homo sapiens, UniProt P15144). The data set is described as follows: Inhibition of APN (unknown origin).
Chain of Aminopeptidase N (P15144 whole entry): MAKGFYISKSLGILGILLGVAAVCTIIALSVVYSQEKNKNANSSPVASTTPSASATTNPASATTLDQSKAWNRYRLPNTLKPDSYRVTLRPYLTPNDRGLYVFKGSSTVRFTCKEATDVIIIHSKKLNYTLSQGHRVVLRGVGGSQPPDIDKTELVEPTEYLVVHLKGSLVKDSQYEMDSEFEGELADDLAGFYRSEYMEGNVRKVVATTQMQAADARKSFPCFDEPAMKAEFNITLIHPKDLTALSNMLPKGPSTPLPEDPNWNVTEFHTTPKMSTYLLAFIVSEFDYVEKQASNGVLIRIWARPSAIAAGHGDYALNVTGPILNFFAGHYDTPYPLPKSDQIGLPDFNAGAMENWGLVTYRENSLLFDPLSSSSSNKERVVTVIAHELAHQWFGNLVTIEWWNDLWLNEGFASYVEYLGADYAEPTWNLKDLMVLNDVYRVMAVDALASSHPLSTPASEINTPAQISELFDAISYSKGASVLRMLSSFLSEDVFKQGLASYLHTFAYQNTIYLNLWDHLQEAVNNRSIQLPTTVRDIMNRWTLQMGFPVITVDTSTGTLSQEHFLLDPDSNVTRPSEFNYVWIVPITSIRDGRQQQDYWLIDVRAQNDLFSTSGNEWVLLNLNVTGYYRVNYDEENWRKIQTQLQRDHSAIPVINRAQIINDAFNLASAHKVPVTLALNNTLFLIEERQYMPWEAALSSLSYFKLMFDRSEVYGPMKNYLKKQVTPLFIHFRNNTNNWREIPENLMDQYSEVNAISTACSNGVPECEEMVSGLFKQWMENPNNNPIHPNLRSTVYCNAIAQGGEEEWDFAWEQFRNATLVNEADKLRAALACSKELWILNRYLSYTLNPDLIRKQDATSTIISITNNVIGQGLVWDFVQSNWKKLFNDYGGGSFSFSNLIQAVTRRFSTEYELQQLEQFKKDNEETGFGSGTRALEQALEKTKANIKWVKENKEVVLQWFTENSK
Data set [2] in a line: Apparent permeability in human Caco-2 cells.
A short description of data set [3]: Solubility of compound in phosphate buffer at pH 7.4.
Another data set concerns the target T2, Cytochrome P450 1A2 (Homo sapiens, UniProt P05177).
T2 sequence (P05177 whole entry): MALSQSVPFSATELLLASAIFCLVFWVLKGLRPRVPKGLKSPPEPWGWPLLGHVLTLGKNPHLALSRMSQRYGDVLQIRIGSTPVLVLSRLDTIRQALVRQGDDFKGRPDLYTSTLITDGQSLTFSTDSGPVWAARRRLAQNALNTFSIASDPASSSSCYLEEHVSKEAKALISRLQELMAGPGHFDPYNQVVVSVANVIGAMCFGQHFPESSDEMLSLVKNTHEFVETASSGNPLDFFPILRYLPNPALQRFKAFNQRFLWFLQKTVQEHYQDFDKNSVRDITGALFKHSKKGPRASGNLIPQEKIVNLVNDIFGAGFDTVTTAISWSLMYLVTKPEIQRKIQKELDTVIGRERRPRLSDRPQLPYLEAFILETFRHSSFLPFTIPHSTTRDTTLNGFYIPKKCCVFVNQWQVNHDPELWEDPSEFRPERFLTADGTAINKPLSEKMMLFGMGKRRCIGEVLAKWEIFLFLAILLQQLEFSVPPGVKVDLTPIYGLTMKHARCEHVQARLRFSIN
The data set is described as follows: Inhibition of CYP1A2 (unknown origin).

The next data set addresses T3, Cytochrome P450 2B6 (Homo sapiens, UniProt P20813).
T3 sequence (P20813 whole entry): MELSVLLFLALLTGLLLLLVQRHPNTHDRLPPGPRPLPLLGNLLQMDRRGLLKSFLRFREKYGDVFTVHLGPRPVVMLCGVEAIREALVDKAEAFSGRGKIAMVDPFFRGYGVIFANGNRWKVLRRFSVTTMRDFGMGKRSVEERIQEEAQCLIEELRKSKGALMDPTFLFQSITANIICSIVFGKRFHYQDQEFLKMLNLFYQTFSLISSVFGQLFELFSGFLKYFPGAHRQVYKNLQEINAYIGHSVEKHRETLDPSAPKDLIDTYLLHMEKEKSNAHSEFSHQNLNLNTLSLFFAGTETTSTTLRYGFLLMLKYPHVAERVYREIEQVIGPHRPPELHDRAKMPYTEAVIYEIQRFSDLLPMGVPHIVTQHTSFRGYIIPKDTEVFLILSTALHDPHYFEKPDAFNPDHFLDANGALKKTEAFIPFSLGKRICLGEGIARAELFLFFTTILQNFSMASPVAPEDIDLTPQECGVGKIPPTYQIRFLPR
As to the kind of experiment: Inhibition of CYP2B6 (unknown origin).

Another data set addresses Cytochrome P450 2C9 (Homo sapiens, UniProt P11712). The data set is described as follows: Inhibition of CYP2C9 (unknown origin).
In a further data set the target is Cytochrome P450 2C19 (Homo sapiens, UniProt P33261). As to the kind of experiment: Inhibition of CYP2C19 (unknown origin).
Chain of Cytochrome P450 2C19 (P33261 whole entry): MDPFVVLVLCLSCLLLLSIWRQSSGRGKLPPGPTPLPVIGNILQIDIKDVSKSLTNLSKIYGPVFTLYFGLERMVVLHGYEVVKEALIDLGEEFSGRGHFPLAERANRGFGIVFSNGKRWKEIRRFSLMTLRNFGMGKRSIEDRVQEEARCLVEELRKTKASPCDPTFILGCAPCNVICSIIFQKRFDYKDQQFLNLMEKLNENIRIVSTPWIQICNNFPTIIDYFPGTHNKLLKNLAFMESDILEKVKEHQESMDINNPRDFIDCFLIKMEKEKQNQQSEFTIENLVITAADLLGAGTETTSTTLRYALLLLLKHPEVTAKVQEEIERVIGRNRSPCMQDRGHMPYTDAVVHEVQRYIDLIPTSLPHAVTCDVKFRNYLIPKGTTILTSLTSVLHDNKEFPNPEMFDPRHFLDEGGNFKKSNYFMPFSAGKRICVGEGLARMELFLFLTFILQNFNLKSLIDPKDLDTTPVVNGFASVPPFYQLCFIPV
For another data set, the target named is Cytochrome P450 2D6 (Homo sapiens, UniProt P10635). As to the kind of experiment: Inhibition of CYP2D6 (unknown origin).
Chain of Cytochrome P450 2D6 (P10635 whole entry): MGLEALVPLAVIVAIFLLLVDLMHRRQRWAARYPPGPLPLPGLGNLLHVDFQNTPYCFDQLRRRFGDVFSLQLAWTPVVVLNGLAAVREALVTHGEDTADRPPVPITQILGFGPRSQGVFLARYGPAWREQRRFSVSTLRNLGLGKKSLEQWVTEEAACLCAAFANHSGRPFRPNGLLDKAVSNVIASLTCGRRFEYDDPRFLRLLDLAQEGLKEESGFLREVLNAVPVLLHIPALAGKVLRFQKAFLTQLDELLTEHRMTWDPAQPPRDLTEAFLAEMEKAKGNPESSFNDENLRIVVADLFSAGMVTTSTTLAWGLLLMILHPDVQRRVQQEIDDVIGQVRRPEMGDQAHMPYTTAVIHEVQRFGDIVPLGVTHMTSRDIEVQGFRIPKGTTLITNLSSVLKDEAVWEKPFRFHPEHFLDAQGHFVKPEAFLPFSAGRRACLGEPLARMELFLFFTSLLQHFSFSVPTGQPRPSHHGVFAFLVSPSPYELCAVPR
A further data set addresses Cytochrome P450 3A4 (Homo sapiens, UniProt P08684). The data set is described as follows: Inhibition of CYP3A4 (unknown origin).
A short description of data set [4]: Stability in human hepatocyte assessed as parent compound remaining measured after 1 hrs. The conditions noted are these: hepatocytes.
A short description of data set [5]: Stability in rat hepatocyte assessed as parent compound remaining measured after 1 hrs. The following applies: hepatocytes.
Data set [6] in a line: Half-life in Sprague-Dawley rat at 2 mg/kg, iv. The conditions noted are these: in vivo.
Data set [7] can be described thus: Hepatic extraction ratio in Sprague-Dawley rat at 2 mg/kg, iv. The following applies: in vivo.
Data set [8] in a line: Drug concentration in Sprague-Dawley rat cerebrospinal fluid at 2 mg/kg, iv measured after 5 mins.
A short description of data set [9]: Drug concentration in Sprague-Dawley rat cerebrospinal fluid at 2 mg/kg, iv measured after 60 mins.
Data set [10] in a line: Drug concentration in Sprague-Dawley rat brain at 2 mg/kg, iv measured after 5 mins.
A short description of data set [11]: Drug concentration in Sprague-Dawley rat brain at 2 mg/kg, iv measured after 60 mins.
Data set [12] can be described thus: in vivo. The conditions noted are these: mouse, iv, 2 mg/kg.
Description: AUC (0 to t) in mouse at 2 mg/kg, iv
Data set [13] in a line: in vivo. The conditions noted are these: mouse, po, 20 mg/kg.
Description: AUC (0 to t) in mouse at 20 mg/kg, po
A short description of data set [14]: in vivo. The following applies: mouse.
Data set [15] is described as follows: in vivo. The conditions noted are these: Sprague-Dawley, rat, iv, 2 mg/kg.
Description: Cmax in Sprague-Dawley rat at 2 mg/kg, iv
The nature of data set [16]: in vivo. The conditions noted are these: Sprague-Dawley, rat, iv, 2 mg/kg. This is another data set of the same source.
Description: Renal clearance in Sprague-Dawley rat at 2 mg/kg, iv
Data set [17] is described as follows: Inhibition of APA (unknown origin).

Chain of Cytochrome P450 2C9 (P11712 whole entry): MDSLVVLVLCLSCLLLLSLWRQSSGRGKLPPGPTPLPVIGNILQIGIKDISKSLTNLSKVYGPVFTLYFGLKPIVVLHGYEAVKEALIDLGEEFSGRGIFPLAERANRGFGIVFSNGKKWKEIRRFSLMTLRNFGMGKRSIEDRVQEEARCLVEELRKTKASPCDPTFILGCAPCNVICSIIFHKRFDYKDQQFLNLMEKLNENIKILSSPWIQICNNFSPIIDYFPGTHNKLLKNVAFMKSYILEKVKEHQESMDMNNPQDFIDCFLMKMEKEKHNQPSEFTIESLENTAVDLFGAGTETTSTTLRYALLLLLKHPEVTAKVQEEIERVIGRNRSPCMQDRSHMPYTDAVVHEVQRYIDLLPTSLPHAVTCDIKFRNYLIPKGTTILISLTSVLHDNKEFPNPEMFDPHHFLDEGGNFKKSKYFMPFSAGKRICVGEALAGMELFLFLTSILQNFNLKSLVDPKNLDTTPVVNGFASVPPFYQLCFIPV
Chain of Cytochrome P450 3A4 (P08684 whole entry): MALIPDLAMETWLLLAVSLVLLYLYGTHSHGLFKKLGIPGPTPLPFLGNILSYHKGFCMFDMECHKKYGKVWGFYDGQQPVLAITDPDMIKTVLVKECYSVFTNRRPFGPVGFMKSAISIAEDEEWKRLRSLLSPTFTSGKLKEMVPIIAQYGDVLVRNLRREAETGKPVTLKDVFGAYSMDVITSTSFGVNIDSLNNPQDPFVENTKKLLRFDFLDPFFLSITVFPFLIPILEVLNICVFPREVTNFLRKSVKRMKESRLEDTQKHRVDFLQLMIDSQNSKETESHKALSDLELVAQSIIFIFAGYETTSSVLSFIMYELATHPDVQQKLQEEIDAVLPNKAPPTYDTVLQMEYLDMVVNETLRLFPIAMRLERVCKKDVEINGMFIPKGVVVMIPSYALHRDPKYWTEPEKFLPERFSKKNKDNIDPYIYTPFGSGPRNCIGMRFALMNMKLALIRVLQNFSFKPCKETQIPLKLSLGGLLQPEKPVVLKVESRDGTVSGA

`N[C@H](CS)CCC(=O)O` gave a Ki in [1] of 140 nM.
As to `COc1cccc(CCP(=O)(O)C(N)CCC(=O)O)c1` (centres undefined), the IC50 on Glutamyl aminopeptidase amounted to 28 nM.
Consider `NC(CCC(=O)O)P(=O)(O)CCc1ccccc1OC1CCCC1` (centres undefined), for which the IC50 at Glutamyl aminopeptidase turned out to be 9 nM.
Same read-out and setting: under `NC(CCC(=O)O)P(=O)(O)CCc1ccccc1Cl` (centres undefined) stands 21 nM; under `N[C@H](CCC(=O)O)P(=O)(O)CCc1ccccc1`, 660 nM.
In the case of `NC(CCC(=O)O)P(=O)(O)CCc1ccccc1-c1ccccc1` (centres undefined), on Glutamyl aminopeptidase, the half-maximal inhibitory concentration (IC50) came to 42 nM.
As for `COc1c(Cl)cccc1CCP(=O)(O)C(N)CCC(=O)O` (centres undefined), the IC50 on Glutamyl aminopeptidase was found to be 54 nM.
Same read-out and setting: under `NC(CCC(=O)O)P(=O)(O)CCc1cccc2ccccc12` (centres undefined) stands 7 nM.
With `COc1ccccc1CCP(=O)(O)[C@@H](N)CCC(=O)O`, the IC50 on Aminopeptidase N is greater than 20000 nM; on Glutamyl aminopeptidase, 4 nM; against Cytochrome P450 1A2, greater than 25000 nM; at Cytochrome P450 2B6, greater than 25000 nM; against Cytochrome P450 2C9, greater than 25000 nM; against Cytochrome P450 2C19, greater than 25000 nM. Further, the half-inhibitory concentration (IC50) at Cytochrome P450 2D6 and on Cytochrome P450 3A4 was greater than 25000 nM throughout. The Papp in data set [2] was 0.5 ×10⁻⁶ cm/s. Moreover, in [3], the concentration in solution (solubility) came to 165 µM (≈ 49.7 µg/mL). Further, the fraction remaining at 1 h in data set [4] amounted to 99%; in [5] it was 93%. The molecule further registered a half-life in [6] of roughly 30 min. The hepatic extraction ratio in data set [7] is roughly 0.45. Also, the concentration at 5 min came to 281 ng/mL in data set [8] and 50.2 ng/g in data set [10]. Also, the figures for the concentration at 1 h in data set [9] and in [11] were 115 ng/mL and 15.6 ng/g, respectively. The AUC(0-t) in “in vivo [12]” is 919 ng·h/mL; in “in vivo [13]”, 37.6 ng·h/mL. The molecule also gave a bioavailability in the data set “in vivo [14]” of 4.1%. Moreover, in “in vivo [15]”, the peak level (Cmax) was 4920 ng/mL. The CL renal in the data set “in vivo [16]” is 0.6 mL/min.
On to `COc1ccc(CCP(=O)(O)C(N)CCC(=O)O)cc1` (centres undefined), for which the IC50 at Glutamyl aminopeptidase came out at 24 nM.
Still for that read-out and setting: under `NC(CCC(=O)O)P(=O)(O)CCc1ccccc1OC1CCCCC1` (centres undefined) stands 1 nM; under `NC(CCC(=O)O)P(=O)(O)CCc1ccc2ccccc2c1` (centres undefined), 21 nM; under `Cn1cc(CCP(=O)(O)C(N)CCC(=O)O)c2ccccc21` (centres undefined), 30 nM.
In the case of `NC(CCC(=O)O)P(=O)(O)CCC1CCCCC1` (centres undefined), the IC50 at Glutamyl aminopeptidase is 41 nM.
The same measure, in the same setting: the value for `COc1ccccc1CCP(=O)(O)C(N)CCC(=O)O` (centres undefined) was 9 nM.
For the molecule `NC(CCC(=O)O)P(=O)(O)CCn1ncc2ccccc21` (centres undefined), the IC50 on Glutamyl aminopeptidase turned out to be 420 nM.
On the same count and under the same terms, the value for `N[C@@H](CCC(=O)O)P(=O)(O)CCc1ccccc1` was 10 nM; that for `NC(CCC(=O)O)P(=O)(O)CCc1cccc(Cl)c1` (centres undefined) was 61 nM.
On the same count and under the same terms, the value for `NC(CCC(=O)O)P(=O)(O)CCc1ccccc1Oc1ccccc1` (centres undefined) was 10 nM.
On to `Cc1ccc(CCP(=O)(O)C(N)CCC(=O)O)cc1` (centres undefined), for which, at Glutamyl aminopeptidase, the IC50 stood at 23 nM.
As to `N[C@@H](CCS(=O)(=O)O)[C@@H](S)CCc1ccccc1`, the inhibition constant Ki in data set [17] is 30 nM; at Aminopeptidase N it was greater than 10000 nM.
Take `Cc1ccccc1CCP(=O)(O)C(N)CCC(=O)O` (centres undefined): on Glutamyl aminopeptidase, the IC50 came out at 18 nM.
Same read-out and setting: the value for `NC(CCC(=O)O)P(=O)(O)CCc1cccc(Cl)c1Cl` (centres undefined) was 26 nM; that for `Cc1cccc(CCP(=O)(O)C(N)CCC(=O)O)c1` (centres undefined) was 27 nM; that for `NC(CCC(=O)O)P(=O)(O)CCc1ccccc1OC(F)(F)F` (centres undefined) was 26 nM.
As for `NC(CCCC(=O)O)P(=O)(O)CCc1ccccc1` (racemic), the IC50 on Glutamyl aminopeptidase came out at 930 nM.
The same measure, in the same setting: the value for `NC(CCP(=O)(O)O)P(=O)(O)CCc1ccccc1` (racemic) was 5400 nM; that for `NC(CCC(=O)O)P(=O)(O)CCc1ccccc1` (racemic) was 29 nM; that for `NC(CCC(=O)O)P(=O)(O)CCCc1ccccc1` (racemic) was 54 nM.
Still for that read-out and setting: under `NC(CCS(=O)(=O)O)P(=O)(O)CCc1ccccc1` (racemic) stands 310 nM.
With `NC(CCC(=O)O)P(=O)(O)Cc1ccccc1` (racemic), at Glutamyl aminopeptidase, the IC50 worked out at 39 nM.

What is called Ki is the dissociation constant of the complex between target and ligand, obtained from inhibition or displacement. Higher therefore signals lower affinity. By IC50 is commonly meant the concentration that gives 50% inhibition. One may read the Papp as a coefficient for how fast a substance crosses the barrier. By solubility is commonly meant how much of the substance goes into solution per volume. Low readings indicate a poorly soluble substance, high ones a readily soluble substance. The term amount remaining denotes what is left of the initial amount, in per cent. Broadly, the half-life is how long it takes for the measured level to halve. The term AUC(0-t) denotes exposure summed from dosing to a finite time, without extrapolation to infinity. A low value points to low exposure. Broadly, the bioavailability is dose-corrected exposure relative to a reference, in per cent. Low values mean little systemic uptake, high ones much systemic uptake. A word on the Cmax: it is the peak of the concentration-time curve.
